Laboratory results as given in US20040010042A1, “Method for preventing decrease of breast milk amount in mammals” (Ajinomoto Co., Inc., priority 2002, published 2004).

Test system: lactating Holstein cows in sub-clinical ketosis
Assay: Change of daily milk production after a single intravenous injection in lactating Holstein cows with sub-clinical ketosis
Format: in vivo
Description: Ten lactating Holstein cows in the immediate post-partum period of which milk production was 10-15% decreased in comparison with that of one week before the beginning of test due to sub-clinical ketosis were used. All cows were supplied with a complete feed for lactating cows composed of corn silage and concentrate containing grains, oil meals, animal proteins and vitamins/minerals. On the first day in the test, a solution containing 29 g of L-glutamine dissolved in 1 liter of distilled water for injection was injected into the cows through the cervical vein. The cows were then milked twice a day for one month, and the milk amount was measured. Ten lactating Holstein cows in sub-clinical ketosis were selected as negative controls according to the same criterion as in Example. On the first day in the test, 1 liter of saline was injected through the cervical vein as the negative control. On the other hand, nine lactating Holstein cows selected according to the same criterion as described above were used. On the first day in the test, 1 liter of a 25% dextrose solution was injected through the cervical vein as the positive control. Both the negative and positive controls were then supplied with the same complete feed as used in Example. The cows were then milked twice a day for one month, and the milk amount was measured. […] The X-axis indicates days after administration, and the Y-axis indicates the increment of the milk amount from that on the first day of the test. […] The increase of the milk amount was about 12 kg per day at maximum. […] Thus, the present invention can provide a novel method which is inexpensive and safe for preventing decrease of milk amount in mammals.

Compound: NC(=O)CC[C@H](N)C(=O)O [glutamine, L-glutamine]
- milk amount increase on the average, from that on the first day of the test (single injection through the cervical vein on the first day (29 g L-glutamine in 1 liter, or 1 liter of 25% dextrose solution), milked twice a day for one month): 7.6 kg per day
- increase of the milk amount at maximum, from that on the first day of the test (single injection through the cervical vein on the first day (29 g L-glutamine in 1 liter, or 1 liter of 25% dextrose solution), milked twice a day for one month, FIG. 1): about 12 kg per day
- course of the change of the milk amount after administration (single injection through the cervical vein on the first day, followed for one month, FIG. 1): increased immediately after administration, and this tendency lasted even one month after administration
